Where a SMILES comes first, the peptide text is derived from it. A value given as a limit tells only on which side of the number the result lay.

The results in this text go back to patent publication US11654178B2, “Cyclic prosaposin peptides and uses thereof” (CHILDREN'S MEDICAL CENTER CORPORATION, priority 2014, dated 2023).

In data set [1] the test system is thrombospondin-1 (Tsp-1) in WI-38 lung fibroblasts. The data set is described as follows: Stimulation of Tsp-1 in WI-38 lung fibroblasts (western blot). The data set is classed as cell-based. The text has this:
Identification of both a 4- and 5-amino acid peptide derived from the saposin A domain of Psap that was able to inhibit both a tail vein model of Lewis Lung Carcinoma metastasis and in an adjuvant model of breast cancer metastasis when administered systemically was previously described (3). The therapeutic efficacy of peptides is often limited by their stability, or resistance to degradation by proteases. […] The stability of the 4-amino acid Psap peptide by incorporating d-amino acids at different moieties was investigated. Two peptides with d-amino acids incorporated, in combination, at the first (aspartate) and third (leucine) or the second (tryptophan) and fourth (proline) residues were synthesized. The activity of these peptides along with the native 1-amino acid peptide in vitro by measuring their ability to stimulate thrombospondin-1 (Tsp-1) in WI-38 lung fibroblasts was tested.
While the results of the peptide treatment of the PDX model of ovarian cancer were very promising it was postulated that the stability and activity of the peptide could be increased even more. The peptide derived from Psap was located in a region of the protein that contained a 13-amino acid loop between two helices that was stabilized by a disulfide bond (3). As such a 5-amino acid peptide that was cyclized via backbone (N—C) cyclization was synthesized (FIG. 14A, cyclic DWLPK (SEQ ID NO: 1)). […]

The conditions of data set [2]: mouse, in vivo.
Data set [3] in a line: Activity of cyclic versus linear peptide (FIG. 18).
The test system of a further data set is thrombospondin-1 (Tsp-1). As to the kind of experiment: Tsp-1 activation in cultured cells by Western blot. The format is cell-based. Particulars: cyclic peptides, 4 micrograms/mL or 10 micrograms/mL, Western blot, FIG. 2. How it is done:
Cells were cultured and contacted with 4 micrograms/mL or 10 micrograms/mL of each peptide and the level of thrombospondin-1 (Tsp-1) activation was measured by Western blot. Tsp-1 has been previously shown to be activated by Saposin A protein.

Data set [4] deals with DSS-induced model of Crohn's Disease. The data set is described as follows: Dextran Sodium Sulfate (DSS)-induced model of Crohn's Disease. The data set is classed as in vivo, mice. Here is the method:
A model of Crohn's disease was used to test the efficacy of the cyclic peptide DWLPK (SEQ ID NO: 1) for treating Crohn's disease. The cyclic peptide was tested in a Dextran Sodium Sulfate (DSS)-induced model of Crohn's Disease where DSS was given to the mice in their drinking water (3.5% weight:volume) for 7 days. In one group the mice were treated concurrently with the cyclic peptide and DSS, while the other group was treated with DSS alone.

Data set [5] in a line: Stability in human plasma at 37° C., read out as Tsp-1 stimulation in WI-38 fibroblasts (ELISA). The data set is classed as in vitro ADME. Particulars: 24 hours. How it is done: The cyclic peptide DWLPK (SEQ ID NO: 1) was also tested for stability in human plasma compared to the linear peptide dWIP (SEQ ID NO: 5). Each peptide was incubated in human plasma at 37 degrees Celsius, for 2, 4, 8, or 24 hours.
Cyclization also has the effect of increasing the stability of peptides by forcing them into a conformation that is not recognized by most naturally occurring proteases (9, 10, 14-18). The stability of the cyclic peptide to the linear d-amino acid peptide in human plasma was compared.

A further data set concerns Tsp-1. The data set is described as follows: Tsp-1 stimulation in macrophages in mice. The data set is classed as in vivo. Particulars: FIG. 7, F4/80 macrophages.
Another data set concerns DF14 cells. As to the kind of experiment: DF14 PDX model of metastatic ovarian cancer, cyclic peptide for 10 days. The format is in vivo, mice. How it is done:
Based on these findings the efficacy of the cyclic peptide using the DF14 model was tested. In order to better study the effects of the peptide on the metastatic lesions mice were injected with 1×10^7 cells and allowed the luciferase signal to reach 9×10^9 RLU. The mice were treated with the cyclic peptide for only 10 days to ensure that there would be sufficient tumor tissue to analyze. […] The liver, spleen and omentum were analyzed of both the peptide and control treated mice by H&E, and IHC for Tsp-1, Gil and TUNEL. The metastatic lesions in the control treated mice were, on average, 2.3-fold larger than those in the peptide treated mice (FIG. 14E). […] Moreover, all of the lesions in the peptide treated mice contained a significant percentage of TUNEL positive cells, with an average of 40% TUNEL positive cells/lesion (FIGS. 14H and 14I). Conversely, control treated tumors contained, on average, only 1.4% TUNEL positive cells/lesion (FIGS. 14H and 14I).

The test system of a further data set is pancreatic cancer. As to the kind of experiment: Anti-tumor activity against pancreatic cancer (FIGS. 19 and 20). The data set is classed as in vivo.
Data set [6] concerns patient-derived ovarian cancer cells expressing luciferase. The data set is described as follows: Mouse model of ovarian cancer, luciferase tumor burden and histology. The format is in vivo, mice. Particulars: 10 mg/kg for 10 days. Here is the method: Next the cyclic peptide DWLPK (SEQ ID NO: 1) was tested in a mouse model of ovarian cancer. For the ovarian cancer mouse model, 1 million patient-derived ovarian cancer cells expressing luciferase were injected intraperitoneally into mice. The tumor burden was measured in vivo using luciferase. Treatment with the cyclic peptide began after 40 days and was administered for 10 days at 10 mg/kg. After 10 days of treatment, the mice were euthanized and the tumor was analyzed histologically.

As to `CC(C)C[C@@H]1NC(=O)[C@H](Cc2c[nH]c3ccccc23)NC(=O)[C@H](CC(=O)O)NC(=O)[C@H](CCCCN)NC(=O)[C@@H]2CCCN2C1=O` [cyclic DWLPK] (cyclo(DWLPK)), the “Tsp-1 stimulation in vitro relative to d-amino acid linear peptide” value in data set [1] is on record as 3 fold. Further, in [2], the “toxicity to the liver or spleen by histology” value was “did not cause any toxicity”. Also, the “activity relative to the linear peptide” value in [3] was “approximately 2 fold”. The “effectiveness at increasing the level of Tsp-1” value in the data set on thrombospondin-1 (Tsp-1) is listed as “most effective”. Moreover, the “inflammation (MPO enzymatic activity)” value in data set [4] (DSS 3.5% in drinking water 7 days, peptide concurrently, FIG. 9) is listed as “significantly reduced inflammation”. The “body weight loss versus DSS only” value in data set [4] (FIG. 10) is listed as “lost less weight”. Moreover, in data set [4] (FIG. 11), the “Tsp-1 stimulation in intestine” value is reported as “stimulate Tsp-1” and the macrophage infiltration entry is “inhibit macrophage infiltration”. The “ability to activate Tsp-1 after incubation in human plasma” value in [5] (37 degrees Celsius, FIG. 3) is listed as “retained the ability to activate Tsp-1”. Moreover, the “Tsp-1 stimulating activity retained after incubation in human plasma” value in [5] (37° C., ELISA) is “greater than 70%”. Also, the “Tsp-1 in macrophages in mice” value in the data set on Tsp-1 is recorded as “stimulated Tsp-1 in macrophages”. Besides, in the data set with DF14 cells (10 days of treatment, on average), the “size of metastatic lesions in control treated mice relative to peptide treated mice” value was determined as 2.3 fold. Further, the “TUNEL positive cells/lesion, average” value in the data set with DF14 cells (10 days of treatment, control 1.4%) is on record as 40%. Also, the “average luciferase signal after treatment” value with DF14 cells (after 10 days of treatment, start at 9×10^9 RLU, 10 mg/kg QD) is listed as 4×10^8 RLU. In addition, the “Tsp-1 staining of treated tumors (IHC)” value in the data set on DF14 cells (all of the peptide treated tumors) is reported as “stained positive for Tsp-1”. Further, in the data set on pancreatic cancer (FIG. 19), the “anti-tumor activity against pancreatic cancer” value is listed as “significant anti-tumor activity”. Further, in the data set on pancreatic cancer (FIG. 20), the “effect on metastasis of pancreatic cancer” value is “inhibits metastasis” and the “effect on metastatic pancreatic cancer” value was “regresses metastatic pancreatic cancer”. In addition, the “size of treated tumors relative to untreated tumors by histology” value in [6] is given as less than 25%. For the same molecule, the “Tsp-1 expression in treated tumors” value in data set [6] (histology) is recorded as “expressed Tsp-1”. Also, in [6] (starting after 40 days, FIG. 6), the “luciferase output (tumor burden)” value is “went down”.
